# Laboratory results: patent US8106048B2, “Heterocyclic NF-κB inhibitors” (4SC AG, priority 2004, dated 2012)
# Tested on: A549-NF-κB-SEAP reporter cells
# Assay: Inhibition of NF-κB-induced inflammation: […] NINA Instant Assay, TNF-α stimulated SEAP reporter
# Assay type: cell-based
# Conditions: % inhibition classes
# Excerpt: For the determination of anti-inflammatory activity of the compounds the […]® NINA Instant Assay from Cell Culture Service GmBH was used. This assay is based on […] recombinant A549-NF-κB-SEAP reporter cells preceded in 96-well flat bottom plates. As the transfected reportergen for SEAP (secreted embryonic alkaline phosphatase) is under transcriptional control of a NF-κB-responsive element, the expression of this reporter is activated upon stimulation with TNF-α. SEAP secretion into the culture supernatant can be detected by the chemiluminescent substrate CSPD®. Test compounds that inhibit the NF-κB activation show reduced SEAP activity and reduced luminescent readout.
# Following 18 h of reactivation at 37° C., 5% CO2 and 90% relative humidity, the cells were incubated with 0.01 up to 100 μM of test compound for 4.5 h before stimulation with 2 ng/ml TNF-α. After stimulation with TNF-α for 22 h endogenous phosphatases were inactivated and CSPD® substrate was supplied for 40 min. SEAP activity then was quantified by measuring luminescence as relative light units (RLU) using a Tecan Ultra reader. Each data point was recorded in quadruplicates and EC50 values were calculated via fitting function and the Microsoft Excel Solver.
row,SMILES,Biological activity (inhibition in the NF-κB inflammation assay)
1,O=C(c1csc(C2CCN(C(=O)c3ccco3)CC2)n1)N1CCN(c2cccc(C(F)(F)F)c2)CC1 [compound 230],+ (“+” stands for 50-80% inhibition)
2,O=C(O)C1=C(C(=O)N2CCC(c3nc(C(=O)N4CCN(c5cccc(C(F)(F)F)c5)CC4)cs3)CC2)CCCC1 [compound 190],+ (“+” stands for 50-80% inhibition)
3,COc1cc(NC(=O)N2CCC(c3nc(C(=O)N4CCN(c5cccc(C(F)(F)F)c5)CC4)cs3)CC2)cc(OC)c1OC [compound 81],++ (“++” means 80-90%)
4,Cc1cc(NC(=O)N2CCC(c3nc(C(=O)N4CCN(c5cccc(C(F)(F)F)c5)CC4)cs3)CC2)c(C(F)(F)F)o1 [compound 76],++ (“++” means 80-90%)
5,O=C(c1csc(N2CCN(C(=O)c3ccccc3OC(F)(F)F)CC2)n1)N1CCN(c2cccc(C(F)(F)F)c2)CC1 [compound 39],+++ (“+++” stands for 90-100% inhibition)
6,O=C(O)c1ccccc1C(=O)N1CCC(c2nc(C(=O)N3CCN(c4cccc(C(F)(F)F)c4)CC3)cs2)CC1 [compound 185],+ (“+” stands for 50-80% inhibition)
7,Cc1cc2nc(NC(=O)c3csc(C4CCN(C(=O)Cc5ccc(F)cc5)CC4)n3)[nH]c2cc1C [compound 131],+ (“+” stands for 50-80% inhibition)
8,O=C(c1csc(C2CCN(Cc3ccc(OC(F)(F)F)cc3)CC2)n1)N1CCN(c2cccc(C(F)(F)F)c2)CC1 [compound 172],+ (“+” stands for 50-80% inhibition)
9,COc1ccccc1N1CCN(C(=O)c2csc(NC(=O)c3ccccc3OC(F)(F)F)n2)CC1 [compound 44],++ (“++” means 80-90%)
10,CN1CCOc2cc(C(=O)N3CCC(c4nc(C(=O)N5CCN(c6cccc(C(F)(F)F)c6)CC5)cs4)CC3)ccc21 [compound 210],++ (“++” means 80-90%)
11,O=C(c1csc(C2CCN(C(=O)c3ccccc3OC(F)(F)F)CC2)n1)N1CCN(c2cccc(Cl)c2)CC1 [compound 151],+ (“+” stands for 50-80% inhibition)
12,O=C(c1csc(C2CCN(Cc3c(F)cccc3F)CC2)n1)N1CCN(c2cccc(C(F)(F)F)c2)CC1 [compound 168],+ (“+” stands for 50-80% inhibition)
13,O=C(c1csc(C2CCN(Cc3ccc(Br)cc3)CC2)n1)N1CCN(c2cccc(C(F)(F)F)c2)CC1 [compound 174],+ (“+” stands for 50-80% inhibition)
14,CN(C)c1ncnc(NC(=O)c2csc(C3CCN(C(=O)c4ccccc4OC(F)(F)F)CC3)n2)n1 [compound 88],+ (“+” stands for 50-80% inhibition)
15,COc1ccccc1N1CCN(c2nc(C(=O)N3CCN(c4cccc(C(F)(F)F)c4)CC3)cs2)CC1 [compound 65],++ (“++” means 80-90%)
16,O=C(NCC1CCN(c2nc(C(=O)N3CCN(c4cccc(C(F)(F)F)c4)CC3)cs2)CC1)c1ccccc1OC(F)(F)F [compound 101],+ (“+” stands for 50-80% inhibition)
17,O=C(c1csc(C2CCN(Cc3ccccc3)CC2)n1)N1CCN(c2cccc(C(F)(F)F)c2)CC1 [compound 177],+ (“+” stands for 50-80% inhibition)
18,O=C(c1csc(C2CCN(S(=O)(=O)c3ccc(Cl)cc3Cl)CC2)n1)N1CCN(c2cccc(C(F)(F)F)c2)CC1 [compound 200],×
19,O=C(Nc1nc(C(=O)N2CCN(C(c3ccccc3)c3ccccc3)CC2)cs1)c1ccccc1OC(F)(F)F [compound 58],++ (“++” means 80-90%)
20,CC(C)(C)OC(=O)N1CCC(C(=O)N2CCN(c3cccc(C(F)(F)F)c3)CC2)CC1 [compound 125],+ (“+” stands for 50-80% inhibition)
21,O=C(O)C1CCCCC1C(=O)N1CCC(c2nc(C(=O)N3CCN(c4cccc(C(F)(F)F)c4)CC3)cs2)CC1 (centres unmarked) [compound 189],+ (“+” stands for 50-80% inhibition)
22,O=C(c1csc(C2CCN(C(=O)c3cc(-c4ccc(Cl)cc4)oc3C(F)(F)F)CC2)n1)N1CCN(c2cccc(C(F)(F)F)c2)CC1 [compound 218],+++ (“+++” stands for 90-100% inhibition)

row,SMILES,Biological activity (inhibition in the NF-κB inflammation assay)
1,O=C(c1csc(N2CCN(c3ccccc3)CC2)n1)N1CCN(c2cccc(C(F)(F)F)c2)CC1 [compound 68],+ (“+” stands for 50-80% inhibition)
2,O=C(O)c1cc(Cl)c(Cl)cc1C(=O)N1CCC(c2nc(C(=O)N3CCN(c4cccc(C(F)(F)F)c4)CC3)cs2)CC1 [compound 187],+ (“+” stands for 50-80% inhibition)
3,COC(=O)CC1c2ccccc2CCN1C(=O)c1csc(C2CCN(C(=O)Cc3ccc(F)cc3)CC2)n1 (centres unmarked) [compound 227],+ (“+” stands for 50-80% inhibition)
4,N=C(NC(=O)c1csc(C2CCNCC2)n1)Nc1nc2ccccc2[nH]1 [compound 94],+ (“+” stands for 50-80% inhibition)
5,O=C(Cc1ccc(F)cc1)N1CCC(c2nc(C(=O)N3CCc4cc(O)c(O)cc4C3)cs2)CC1 [compound 160],+ (“+” stands for 50-80% inhibition)
6,COc1ccc(N2CCC(c3nc(C(=O)N4CCN(c5cccc(C(F)(F)F)c5)CC4)cs3)CC2)cc1OC [compound 159],+ (“+” stands for 50-80% inhibition)
7,Cc1cc(=O)[nH]c(NC(=O)c2csc(C3CCN(C(=O)c4ccccc4OC(F)(F)F)CC3)n2)n1 [compound 86],+ (“+” stands for 50-80% inhibition)
8,N#CNC(=N)NC(=O)c1csc(C2CCN(C(=O)c3ccccc3OC(F)(F)F)CC2)n1 [compound 90],+ (“+” stands for 50-80% inhibition)
9,CSc1nccc(N2CCN(C(=O)c3csc(C4CCN(C(=O)c5ccccc5OC(F)(F)F)CC4)n3)CC2)n1 [compound 124],+ (“+” stands for 50-80% inhibition)
10,Cc1sc(C2CCN(C(=O)c3ccccc3OC(F)(F)F)CC2)nc1CC(=O)N1CCN(c2cccc(C(F)(F)F)c2)CC1 [compound 103],++ (“++” means 80-90%)
11,O=C(Cc1ccc(F)cc1)N1CCC(c2nc(C(=O)N3CCC(n4nnc5cc(C(F)(F)F)ccc54)CC3)cs2)CC1 [compound 181],+ (“+” stands for 50-80% inhibition)
12,COc1cccc(N2CCC(c3nc(C(=O)N4CCN(c5cccc(C(F)(F)F)c5)CC4)cs3)CC2)c1 [compound 178],+ (“+” stands for 50-80% inhibition)
13,O=C(c1csc(C2CCN(Cc3cccc(OC(F)(F)F)c3)CC2)n1)N1CCN(c2cccc(C(F)(F)F)c2)CC1 [compound 115],++ (“++” means 80-90%)
14,O=C(c1csc(C2CCN(c3cc(C(F)(F)F)ccn3)CC2)n1)N1CCN(c2cccc(C(F)(F)F)c2)CC1 [compound 118],+ (“+” stands for 50-80% inhibition)
15,O=C(C=Cc1ccccc1)N1CCC(c2nc(C(=O)N3CCN(c4cccc(C(F)(F)F)c4)CC3)cs2)CC1 [compound 214],++ (“++” means 80-90%)
16,N#Cc1ccc(CN2CCC(c3nc(C(=O)N4CCN(c5cccc(C(F)(F)F)c5)CC4)cs3)CC2)cc1 [compound 166],+ (“+” stands for 50-80% inhibition)
17,N=C(NC(=O)c1csc(C2CCN(C(=O)C(c3ccccc3)c3ccccc3)CC2)n1)Nc1nc2ccccc2[nH]1 [compound 93],+ (“+” stands for 50-80% inhibition)
18,COc1ccccc1N1CCC(c2nc(C(=O)N3CCN(c4cccc(C(F)(F)F)c4)CC3)cs2)CC1 [compound 158],+ (“+” stands for 50-80% inhibition)
19,O=C(c1ccc2nccnc2c1)N1CCC(c2nc(C(=O)N3CCN(c4cccc(C(F)(F)F)c4)CC3)cs2)CC1 [compound 211],+ (“+” stands for 50-80% inhibition)
20,Cc1noc(C)c1C(=O)N1CCC(c2nc(C(=O)N3CCN(c4cccc(C(F)(F)F)c4)CC3)cs2)CC1 [compound 219],+ (“+” stands for 50-80% inhibition)
21,O=C(c1csc(C2CCN(S(=O)(=O)c3c(Cl)nc4sccn34)CC2)n1)N1CCN(c2cccc(C(F)(F)F)c2)CC1 [compound 197],+ (“+” stands for 50-80% inhibition)
22,Cc1cc2nc(NC(=O)c3csc(C4CCNCC4)n3)[nH]c2cc1C [compound 144],+ (“+” stands for 50-80% inhibition)

# Same assay, conditions: inhibition classes
row,SMILES,Biological activity (inhibition in the NF-κB inflammation assay)
1,COc1cc2c(cc1OC)C(C)N(C(=O)c1csc(C3CCN(C(=O)Cc4ccc(F)cc4)CC3)n1)CC2 (centres unmarked) [compound 234],+ (“+” stands for 50-80% inhibition)
2,COc1cc(NC(=O)N2CCC(c3nc(C(=O)N4CCN(c5cccc(C(F)(F)F)c5)CC4)cs3)CC2)cc(OC)c1OC [compound 240],++ (“++” means 80-90%)
3,O=C(Cc1ccc(F)cc1)N1CCC(c2nc(C(=O)N3CCCC3c3ccc(F)cc3)cs2)CC1 (centres unmarked) [compound 236],+ (“+” stands for 50-80% inhibition)
